We go through one molecule from patent publication US20230226007A1, “NANOPARTICULATE COMPOSITION” (Algiax Pharmaceuticals GmbH, priority 2020, published 2023).

The nature of this data set: Solubility of AP-325 in different solvents at ambient temperature. Type of data set: physicochemical. From the text: AP-325 is a pharmaceutical agent, which is currently in clinical development. […] For a better characterization of active ingredients with low solubility, a classification according to the BCS system (=Biopharmaceutics Classification System) was introduced (Guidance for Industry: Immediate release solid oral dosage forms and FDA, 1995). This BCS system distinguishes four categories based on the solubility and permeability of the active substance. At a pH value of below 7 AP-325 can be classified as a BCS class II drug substance. The low solubility of AP-325 negatively affects the absorption into the body after oral administration due to a limited absorption of the active agent in the small intestine (such as the jejunum or ileum), which is an essential absorption window for the uptake of a drug. Consequently, the therapeutic effect cannot be achieved.
FIG. 3: Solubility of AP-325 in different solvents at ambient temperature.

Consider `Cc1cc(NC(=O)/C(C#N)=C(\O)C2CC2)ccc1C(F)(F)F` [AP-325], for which the BCS classification result (pH value of below 7) is given as “BCS class II”. Besides, the Solubility result (physiological pH of 6.8 (phosphate buffer), ambient temperature) is “practically insoluble”.
